{"source": "patent US20250145622A1", "about": "“SOLID FORMS OF A TRIAZINE DERIVATIVE AS CBL-B MODULATOR” (HOTSPOT THERAPEUTICS, INC., priority 2022, published 2025)", "assay_type_in_all_cases": "physicochemical", "key": {"[1]": {"test": "Solubility determination by solvent addition (visual assessment)", "details": "thermodynamic from solid", "description": "Aliquots of various solvents were added to measured amounts of the anhydrous crystalline form of the compound of formula (I) at various temperatures with sonication or stirring. Solubilities were calculated based on the total solvent used to give a solution; actual solubilities may be greater because of the volume of solvent portions utilized or a slow rate of dissolution. […] If dissolution occurred at the first aliquot the value was reported as “>”."}, "[2]": {"test": "Dynamic vapor sorption (DVS), water sorption isotherm"}, "[3]": {"test": "Dynamic vapor sorption (DVS), water sorption isotherm", "description": "Vapor sorption data were collected on a Surface Measurement System DVS Intrinsic instrument. Samples were not dried prior to analysis. Sorption and desorption data were collected over a range from 5% to 95% RH at 10% RH increments under a nitrogen purge. The equilibrium criterion used for analysis was less than 0.0100% weight change in 5 minutes with a maximum equilibration time of 3 hours.", "remark": "listed apart in the source"}}, "note": "“Also recorded” adds a separate entry of the source. Read-outs that look alike come from different tables or passages of the source."}
{"compound": "C[C@H]1CCCN(Cc2cc(C(F)(F)F)c3cn(-c4cccc([C@H](c5nncn5C)C5CCC5)c4)c(=O)n3c2)C1", "values": [{"measurement": "solubility", "setting": "[1]; water, 25° C., by solvent addition, read-out: aqueous solubility", "result": "> 111", "unit": "mg/mL"}]}
{"compound": "C[C@H]1CCCN(Cc2cc(C(F)(F)F)c3cn(-c4cccc([C@H](c5nncn5C)C5CCC5)c4)c(=O)n3c2)C1", "note": "[2-(3-((R)-cyclobutyl(4-methyl-4H-1,2,4-triazol-3-yl)methyl)phenyl)-6-(((S)-3-methylpiperidin-1-yl)methyl)-8-(trifluoromethyl)imidazo[1,5-a]pyridin-3(2H)-one]", "values": [{"measurement": "solubility", "setting": "[1]; aqueous with cosolvent or surfactant or cyclodextrin, solvent Water/EtOH (20/80 v/v), read-out: Solubility", "result": "> 29", "unit": "mg/mL"}, {"measurement": "solubility", "setting": "[1]; aqueous with cosolvent or surfactant or cyclodextrin, solvent Water/EtOH (40/60 v/v), read-out: Solubility", "result": "> 36", "unit": "mg/mL"}, {"measurement": "solubility", "setting": "[1]; aqueous with cosolvent or surfactant or cyclodextrin, solvent Water/EtOH (50/50 v/v), read-out: Solubility", "result": 9, "unit": "mg/mL"}, {"measurement": "solubility", "setting": "[1]; aqueous with cosolvent or surfactant or cyclodextrin, solvent Water/EtOH (60/40 v/v), read-out: Solubility", "result": "< 4", "unit": "mg/mL"}, {"measurement": "solubility", "setting": "[1]; aqueous with cosolvent or surfactant or cyclodextrin, solvent Water/IPA (20/80 v/v), read-out: Solubility", "result": "> 30", "unit": "mg/mL"}, {"measurement": "solubility", "setting": "[1]; aqueous with cosolvent or surfactant or cyclodextrin, solvent Water/IPA (40/60 v/v), read-out: Solubility", "result": "> 37", "unit": "mg/mL"}, {"measurement": "solubility", "setting": "[1]; aqueous with cosolvent or surfactant or cyclodextrin, solvent Water/IPA (60/40 v/v), read-out: Solubility", "result": 9, "unit": "mg/mL"}, {"measurement": "solubility", "setting": "[1]; aqueous with cosolvent or surfactant or cyclodextrin, solvent Water/MeOH (20/80 v/v), read-out: Solubility", "result": "> 29", "unit": "mg/mL"}, {"measurement": "solubility", "setting": "[1]; aqueous with cosolvent or surfactant or cyclodextrin, solvent Water/MeOH (40/60 v/v), read-out: Solubility", "result": 7, "unit": "mg/mL"}, {"measurement": "solubility", "setting": "[1]; aqueous with cosolvent or surfactant or cyclodextrin, solvent Water/MeOH (60/40 v/v), read-out: Solubility", "result": "< 3", "unit": "mg/mL"}, {"measurement": "solubility", "setting": "[1]; organic solvent or mixture, solvent ACN, read-out: Solubility", "result": 85, "unit": "mg/mL"}, {"measurement": "solubility", "setting": "[1]; organic solvent or mixture, solvent Acetone, read-out: Solubility", "result": 31, "unit": "mg/mL"}, {"measurement": "solubility", "setting": "[1]; organic solvent or mixture, solvent DCM, read-out: Solubility", "result": "> 100", "unit": "mg/mL"}, {"measurement": "solubility", "setting": "[1]; organic solvent or mixture, solvent DIPE, read-out: Solubility", "result": "< 2", "unit": "mg/mL"}, {"measurement": "solubility", "setting": "[1]; organic solvent or mixture, solvent EtOAc, read-out: Solubility", "result": 38, "unit": "mg/mL"}, {"measurement": "solubility", "setting": "[1]; organic solvent or mixture, solvent EtOH, read-out: Solubility", "result": 99, "unit": "mg/mL"}, {"measurement": "solubility", "setting": "[1]; organic solvent or mixture, solvent Heptane, read-out: Solubility", "result": "< 1", "unit": "mg/mL"}, {"measurement": "solubility", "setting": "[1]; organic solvent or mixture, solvent IPA, read-out: Solubility", "result": 79, "unit": "mg/mL"}, {"measurement": "solubility", "setting": "[1]; organic solvent or mixture, solvent MTBE, read-out: Solubility", "result": 4, "unit": "mg/mL"}, {"measurement": "solubility", "setting": "[1]; organic solvent or mixture, solvent MeOH, read-out: Solubility", "result": 91, "unit": "mg/mL"}, {"measurement": "solubility", "setting": "[1]; organic solvent or mixture, solvent THF, read-out: Solubility", "result": 95, "unit": "mg/mL"}, {"measurement": "solubility", "setting": "[1]; organic solvent or mixture, solvent Toluene, read-out: Solubility", "result": 99, "unit": "mg/mL"}, {"measurement": "solubility", "setting": "[1]; solvent Water, read-out: Solubility", "result": "< 1", "unit": "mg/mL"}, {"measurement": "total water gained", "setting": "[2]; 5% to 96% RH", "result": "7.6 moles of water"}, {"measurement": "total weight gained", "setting": "[2]; 5% to 96% RH", "result": 15.8, "unit": "%"}, {"measurement": "weight gain", "setting": "[2]; from 75% to 96% RH", "result": 14.6, "unit": "% wt."}, {"measurement": "XRPD analysis on the post-DVS sample (solid form)", "setting": "[3]; after DVS", "result": "amorphous"}, {"measurement": "hysteresis on desorption", "setting": "[3]; desorption step", "result": "very minor hysteresis; also recorded: Significant hysteresis"}, {"measurement": "weight gain", "setting": "[3]; from 5% to 74% RH", "result": 1.2, "unit": "% wt."}, {"measurement": "water taken up during sorption", "setting": "[3]; from 5 to 95% RH", "result": "0.1 moles of water per mole of API"}, {"measurement": "weight gain during the sorption step", "setting": "[3]; from 5 to 95% relative humidity (RH)", "result": 0.4, "unit": "%"}, {"measurement": "appearance of sample after DVS", "setting": "[3]; upon desorption", "result": "signs of partial deliquescence"}, {"measurement": "hygroscopicity classification", "setting": "[3]; water sorption isotherm, Ph. Eur. 10.0 classes", "result": "slightly hygroscopic"}]}
